According to patent publication US20260224652A1, “ENRICHED PELARGONIUM GRAVEOLENS EXTRACTS FOR THE TREATMENT OF TRAUMATIC BRAIN INJURIES” (THE STATE OF ISRAEL, MINISTRY OF AGRICULTURE & RURAL …, priority 2023, published 2026):
Structures can show the parent of a compound that is named as a salt.

Experiments:
[1] = tested on: mice subjected to a closed head injury (CHI); test: Y maze spatial memory test after CHI; format: in vivo; conditions: 24 days after trauma; oral gavage, 9 daily doses; Pg oil 100 mg/kg, citronellol 25 mg/kg, citronellyl formate 80 mg/kg
Protocol: (§1) Experimental CHI was induced by using a modified weight drop device (Chen et al; Flierl et al). Briefly, under 3% isoflurane anesthesia and supplementary oxygen (confirmed by the loss of response to pinch of paw), a midline longitudinal incision is performed, and the skull is exposed. A Teflon tipped cone (2 mm diameter) is placed upside down 2 mm lateral to the midline and 2 mm posterior to the bregma in the mid-coronal plane. The head is held in place and a 95 g weight is allowed to free-fall on the cone from a pre-established height, resulting in focal injury to the left hemisphere. The height of the free-fall weight is determined by the weight of the mouse and the desired CHI severity. […] At 1 h after CHI, the NSS is evaluated. […] Animals displaying apnea were monitored carefully and returned to their cage when adequate oxygenation was restored. • a. […]
At 24 days post CHI, the Y maze spatial memory test was preformed to evaluate short term spatial memory. […] Short-term memory is reflected by the Preference index (PI), calculated as the amount of time spent in the new arm relative to the total amount of time spent in the “other” plus “new” arms. […]
The data was further analyzed by dividing the mice's performance into two groups: mice with (+) positive y-axis values (which represent a good spatial memory) and mice with negative (−) y-axis values (which represent spatial memory loss).

[2] = tested on: mice subjected to a closed head injury (CHI); test: Neurological Severity Score (NSS) after closed head injury; format: in vivo; conditions: oral gavage, 9 daily doses over 2 weeks starting 24 h after CHI; Pg oil 100 mg/kg, citronellol 25 mg/kg, citronellyl formate 80 mg/kg; from day 7 up to 30 days after trauma
Protocol: as §1, with “severity. In the present experiments, a free-fall of 6.5-7 cm was selected to induce a moderate neurological severity injury (NSS of 6-7 at 1 hr post injury).” for “severity.”
The functional status of the mice was evaluated according to the neurobehavioral score, known as the Neurological Severity Score (NSS), which consists of several tests that assess reflexes, alertness, coordination, and motor abilities. […]
The neurological severity score (NSS) was determined for each of the experimental groups of mice (details as described above) starting 1 hour after the trauma.

[3] = tested on: mice subjected to a closed head injury (CHI); test: Barnes maze test (learning) after CHI; format: in vivo; conditions: acquisition days 1-4, two weeks after CHI; oral gavage, 9 daily doses; Pg oil 100 mg/kg, citronellol 25 mg/kg, citronellyl formate 80 mg/kg
Protocol: as §1, with “severity. In the present experiments, a free-fall of 6.5-7 cm was selected to induce a moderate neurological severity injury (NSS of 6-7 at 1 hr post injury). Sham mice were anesthetized and subjected to the same skin incision as described above, with no further trauma.” for “severity.”
The BM test is based on the instinct of the mouse to hide when exposed to environmental disturbances and is used to test spatial learning and memory. […] For the probe trial, the latency to reaching the escape box first is recorded. […]

[4] = tested on: mice subjected to a closed head injury (CHI); test: Novel Object Recognition (NOR) test after CHI; format: in vivo; conditions: 22 days after trauma; 4 hours after object replaced; oral gavage, 9 daily doses; Pg oil 100 mg/kg, citronellol 25 mg/kg, citronellyl formate 80 mg/kg
Protocol: as §1
The novel object recognition (NOR test) was performed to assess short term memory 22d after trauma. […] The cumulative time spent by each mouse exploring the objects was recorded manually for a total of 5 min. […] Exploration of the object was determined as such when the mouse's nose was pointed in the direction of the object and the mouse was actively investigating it, directly touching it or being close to it. […] The time spent exploring each of the objects (novel or familiar) was recorded and calculated as the percentage of time from a total of 5 min. […]

acetyl choline esterase = acetyl choline esterase (Homo sapiens, UniProt P22303); conditions: in vitro; cited from earlier work
acetyl choline esterase, sequence (P22303 32-614): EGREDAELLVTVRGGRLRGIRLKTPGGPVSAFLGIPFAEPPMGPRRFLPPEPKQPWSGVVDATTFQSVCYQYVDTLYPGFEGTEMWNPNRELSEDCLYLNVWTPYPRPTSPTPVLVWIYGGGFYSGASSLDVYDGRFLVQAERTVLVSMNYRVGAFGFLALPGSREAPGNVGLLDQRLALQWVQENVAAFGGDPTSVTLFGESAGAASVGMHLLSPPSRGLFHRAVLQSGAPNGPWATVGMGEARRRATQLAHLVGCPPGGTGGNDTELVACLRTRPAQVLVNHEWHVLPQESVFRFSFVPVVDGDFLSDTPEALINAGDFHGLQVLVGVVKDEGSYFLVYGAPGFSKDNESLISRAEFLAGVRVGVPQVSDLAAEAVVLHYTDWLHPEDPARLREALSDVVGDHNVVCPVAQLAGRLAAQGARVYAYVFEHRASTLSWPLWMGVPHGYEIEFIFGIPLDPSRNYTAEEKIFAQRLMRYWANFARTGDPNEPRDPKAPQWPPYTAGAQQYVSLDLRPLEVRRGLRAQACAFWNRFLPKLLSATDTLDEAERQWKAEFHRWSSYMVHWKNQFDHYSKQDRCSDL

Row | SMILES | percent of mice that preferred the novel arm over the familiar arm (Y maze) [1] | reduction in the neurological severity score (NSS) compared with vehicle treated CHI mice [2] | Barnes maze learning performance (latency to escape box) [3] | preference/recognition of a novel object versus a familiar one (NOR) [4] | inhibition of acetyl choline esterase activity (acetyl choline esterase)
1 | CC(C)=CCCC(C)CCO (stereo not drawn) [citronellol] | About 54% | significant reduction | significant improvement, but only on day 2 | not able to prefer/recognize a novel object | –
2 | CC(C)=CCCC(C)CCOC=O (stereo not drawn) [citronellyl formate] | About 54% | significant reduction | significant improvement, but only on day 2 | not able to prefer/recognize a novel object | –
3 | CC(C)=CCC[C@H](C)CCO [(S) (−) citronellol] | – | – | – | – | inhibits in vitro the activity of the enzyme acetyl choline esterase
